What was measured:
[1] = biological target: T1, Mitogen-activated protein kinase 10 (Homo sapiens, UniProt P53779); experiment: Competitive inhibition of JNK3 (unknown origin) in presence of ATP
[2] = biological target: Mitogen-activated protein kinase 9 (Homo sapiens, UniProt P45984); experiment: Competitive inhibition of JNK2 (unknown origin) in presence of ATP
[3] = biological target: T1, Mitogen-activated protein kinase 10; experiment: Inhibition of JNK3 in human PBMCs assessed as decrease in LPS-induced TNFalpha mRNA level after 4 hrs by real-time reverse transcription-PCR analysis
[4] = biological target: T1, Mitogen-activated protein kinase 10; experiment: Binding affinity to N-terminal His6X-tagged human recombinant JNK3 catalytic domain expressed in Escherichia coli BL21 (DE3) by surface plasmon resonance analysis

T1 sequence (P53779 whole entry): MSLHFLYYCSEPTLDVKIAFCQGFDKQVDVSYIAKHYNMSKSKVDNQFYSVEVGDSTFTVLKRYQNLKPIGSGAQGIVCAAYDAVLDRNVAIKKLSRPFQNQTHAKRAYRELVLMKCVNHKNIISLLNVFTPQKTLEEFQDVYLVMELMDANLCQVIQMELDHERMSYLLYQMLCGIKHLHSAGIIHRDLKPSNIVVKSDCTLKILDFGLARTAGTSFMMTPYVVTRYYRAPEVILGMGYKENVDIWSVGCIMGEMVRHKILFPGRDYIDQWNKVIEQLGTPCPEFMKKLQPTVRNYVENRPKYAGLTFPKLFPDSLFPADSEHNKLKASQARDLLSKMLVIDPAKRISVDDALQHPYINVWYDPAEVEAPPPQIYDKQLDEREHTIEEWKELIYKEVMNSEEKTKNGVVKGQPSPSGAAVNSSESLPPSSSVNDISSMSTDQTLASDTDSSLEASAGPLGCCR
Chain of Mitogen-activated protein kinase 9 (P45984 whole entry): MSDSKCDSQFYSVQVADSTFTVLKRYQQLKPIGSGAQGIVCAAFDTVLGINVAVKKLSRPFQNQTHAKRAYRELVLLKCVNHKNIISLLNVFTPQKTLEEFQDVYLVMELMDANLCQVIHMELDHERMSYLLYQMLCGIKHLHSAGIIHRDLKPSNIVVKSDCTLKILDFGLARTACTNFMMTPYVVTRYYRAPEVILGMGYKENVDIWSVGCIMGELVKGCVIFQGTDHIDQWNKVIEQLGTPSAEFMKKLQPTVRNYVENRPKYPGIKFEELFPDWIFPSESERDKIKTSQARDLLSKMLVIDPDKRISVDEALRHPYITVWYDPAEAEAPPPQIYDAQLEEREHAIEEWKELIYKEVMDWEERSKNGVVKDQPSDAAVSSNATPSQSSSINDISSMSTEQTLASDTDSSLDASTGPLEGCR

Oc1cccc(-c2nc3ccccc3n2-c2ccnc(N[C@@H]3CCCNC3)c2)c1
IC50 [1]: 1.86 µM
IC50 [2]: 2.18 µM

Oc1c2ccccc2c2c3c(cccc13)N=N2 [SP-600125]
IC50 [3]: 10 µM
inhibition [3]: Dose-dependent effect

COc1ccc2c(c1)nc(-c1ccc(C)c(Cl)c1)n2-c1ccnc(NC2CCCCC2)c1
Kd [4]: 18.1 µM

— ChEMBL document CHEMBL2346565, “Syntheses and biological evaluation of 1-heteroaryl-2-aryl-1H-benzimidazole derivatives as c-Jun N-terminal kinase inhibitors with neuroprotective effects” (Bioorg Med Chem, 2013)
